Values of other authors, collected in US6107342A, “2-amino-bicyclo[3.1.0]hexane-2,6-dicarboxylic acid derivatives and a process for the preparation thereof” (Hoffmann-La Roche Inc., priority 1998, dated 2000).

Tests used:
[1] = molecular target: group II metabotropic glutamate receptor; settings: antagonism of inhibition by LY354740; Mol. Pharmacology, Vol.53, 228-233 (1998)
[2] = molecular target: mGluR3; settings: Mol. Pharmacology, Vol.53, 228-233 (1998)
[3] = molecular target: mGluR2; settings: Mol. Pharmacology, Vol.53, 228-233 (1998)

N[C@]1(C(=O)O)[C@H]2[C@@H](C[C@H]1O)[C@@H]2C(=O)O [I-A, (1S,2R,3R,5R,6S)-2-amino-3-hydroxy-bicyclo [3.1.0]hexane-2,6-dicarboxylic acid]
pKB [1]: 6.0
Ki [2]: 89 nM
Ki [3]: 52 nM
